Data published in patent US20070244080A1, “Method for Treatment of Inflammatory Disorders Using Triptolide Compounds” (priority 2004, published 2007).

Experiments:
[1] = tested on: IL-2 production in Jurkat cells; conditions: cited from earlier work
[2] = Phase I clinical trial, tolerability; format: in vivo, human; conditions: 0.675 μg/m^2 by i.v. infusion, weekly intervals
Procedure: In accordance with the invention, administration of a triptolide compound is expected to inhibit cytokine production, particularly TGF-β production, in a patient suffering from obliterative airway disease, renal fibrosis, diabetic nephropathy, or liver fibrosis, thereby reducing the symptoms of the disease. A range of doses is practical for this treatment. […] This dose calculates to about 20 μg/kg. Treatment in this clinical study is administered at weekly intervals.

[3] = tested on: human T cell lymphoma (Jurkat) cells; conditions: relative to native triptolide; cited from earlier work
[4] = Conversion of triptolide prodrug to triptolide in blood serum (TLC); format: in vitro ADME; conditions: 37° C.
Procedure: A solution of triptolide succinate in DMSO (25 mg/ml, 0.1 ml) was mixed with 0.5 ml of rat serum. The mixture was incubated at 37° C. Aliquots of the mixture were taken at 1, 3, 5, 15, 45 minutes and 18 hours and analyzed by thin layer chromatography (TLC). The TLC plates were developed in 1:5 CH2Cl2/Et2O. After development, the plates were treated with iodine vapor and examined under a UV lamp. Triptolide and triptolide succinate were used as reference compounds (Rf=0.60 and 0.45, respectively). […] After 15 minutes, the triptolide succinate spot had disappeared (Rf=0.45), and a new spot corresponding to triptolide had appeared (Rf=0.60).

[5] = in vivo; cited from earlier work
IL-2 [6] = experiment: Suppression of cytokine production, PMA/ionomycin-induced Jurkat cells, ELISA; format: cell-based, human; conditions: 8 hr
Procedure: (§1) Triptolide suppresses in vitro production of proinflammatory cytokines such as IFN-γ, TNF-α, IL-1β and IL-6, as shown in Table 1. To obtain the data, Jurkat cells were stimulated for 8 hr by PMA and ionomycin. Human peripheral blood mononuclear cells (PBMC) from a single donor were incubated for 24 hr with PHA. At the end of the culture period, each supernatant was harvested, and the cytokine content was assayed by ELISA.

IFN-γ = experiment: Suppression of cytokine production, PHA-induced PBMC, ELISA; format: cell-based, human; conditions: 24 hr, single donor
Procedure: as §1

IL-1β = experiment: as above; format: cell-based, human; conditions: 24 hr, single donor
Procedure: as §1

IL-2 [7] = experiment: as above; format: cell-based, human; conditions: 24 hr, single donor
Procedure: as §1

IL-6 = experiment: as above; format: cell-based, human; conditions: 24 hr, single donor
Procedure: as §1

TNF-α = experiment: as above; format: cell-based, human; conditions: 24 hr, single donor
Procedure: as §1

IL-8 = conditions: bronchial epithelial cells; cited from earlier work
[8] = tested on: cytokine genes in activated Jurkat cells; conditions: cited from earlier work

CC(C)[C@]12O[C@H]1[C@@H]1O[C@]13[C@]1(O[C@H]1C[C@H]1c4c(C(=O)c5ccccc5)oc(OC(=O)c5ccccc5)c4CC[C@@]13C)[C@@H]2O [PG796, 18-deoxo-19-dehydro-18-benzoyloxy-19-benzoyl triptolide]
IL-2 inhibition activity compared with triptolide 14-succinate ([1]; relative to the prodrug triptolide 14-succinate): higher level of activity

triptolide succinate sodium salt [PG490-88Na]
Tolerability in phase I clinical trial [2]: well tolerated with no drug-related toxicity

CC(C)[C@]12O[C@H]1[C@@H]1O[C@]13[C@]1(O[C@H]1C[C@H]1C4=C(CC[C@@]13C)C(=O)OC4)[C@H]2F [PG763, 14-deoxy-14α-fluoro triptolide]
IL-2 inhibition activity compared with native triptolide ([1]; relative to native triptolide): nearly equivalent | Cytotoxicity compared with native triptolide [3]: nearly equivalent

triptolide 14-succinate [PG490-88]
Species detected by TLC after incubation in rat serum ([4]; after 3 minutes): only triptolide succinate was detected | Species detected by TLC after incubation in rat serum ([4]; after 15 minutes): disappeared | Suppression of IL-2 production ([1]; after incubation in plasma): in vitro activity in suppression of IL-2 production | Efficacy in animal models of immunosuppression [5]: efficacy in several animal models of immunosuppression

triptolide
IC50, suppression of IL-2 production (IL-2 [6]): 1.3 ng/mL | IC50, suppression of IFN-γ production (IFN-γ): 0.52 ng/mL | IC50, suppression of IL-1β production (IL-1β): 0.45 ng/mL | IC50, suppression of IL-2 production (IL-2 [7]): 0.38 ng/mL | IC50, suppression of IL-6 production (IL-6): 1.5 ng/mL | IC50, suppression of TNF-α production (TNF-α): 0.35 ng/mL | IL-8 mRNA and protein expression (IL-8): suppresses IL-8 expression | Expression of cytokine genes (IL-2, IL-3, IL-6, IL-8, IL-13, TNF-α, TGF-β, MIP-1α, MIP-1β, GM-CSF, RANTES) [8]: inhibits the expression of several cytokine genes
